Test system: GFP-aid-NLS marker protein
Experiment: Induction of degradation of labeled protein of interest in transiently transfected COS1 cells, Western blot with GFP antibody
Type: cell-based, monkey
Details: 500 μM auxin, 5 hours
Procedure: The EGFP segment of pIRES2-AcGFP1 (Clontech) was removed by treatment with restriction enzymes BstXI and NotI, into which EGFP-IAA17, which was amplified using pMK42 (an EGFP-IAA17-containing plasmid produced by the inventors) as a template and the following primer set, was inserted (the amplified sequence is shown in SEQ ID NO: 13). By this process, EGFP-IAA17 was cloned downstream of IRES. The resulting plasmid was treated with restriction enzymes XhoI and SmaI, and into this site, rice TIR1 tagged with 9Myc at its C terminus was inserted. By this process, the rice TIR1 was inserted between a CMV promoter and IRES, and the resulting plasmid was referred to as pNHK60. The pNHK60 was transferred into the proliferating COS1, CHO, and NIH3T3 cells using Lipofectamine 2000 (Invitrogen) for transient expression. The HEK293 cell shown in FIG. 4 is a HEK293 strain stably expressing pNHK60, which was obtained by transfer of the pNHK60 under the aforementioned conditions and subsequent selection by the addition of G418 to a medium.
In the experiment of transient expression, the cells were cultured in a medium to which 500 μM IAA or NAA was added, and after five hours, the cells were collected, from which extracts were prepared. […] The factors were detected by Western blotting.
The protein thus extracted was separated by SDS-PAGE and then transferred to a nitrocellulose membrane. Using an anti-Myc antibody (mouse monoclonal 9E10) and an anti-GFP antibody (mouse monoclonal 9E1), each kind of protein was detected by Western blotting. […] For migration control, total extracted proteins were detected by Ponceau staining. Since the […] TIR1 gene is tagged with 9Myc, the TIR1 protein can be detected by Western blotting with the aforementioned Myc antibody. Also, EGFP, which is a protein to be degraded in the complex protein, can be detected by Western blotting with the GFP antibody.
In a similar manner to Example 1, the induction of degradation of a labeled protein of interest was compared between the case in which an expression vector having the TIR1 family protein gene from rice linked between a virus promoter and IRES and the chimeric gene expressing a labeled protein of interest linked downstream thereof was transferred (corresponding to A in FIG. 5) and the case in which an expression vector having the chimeric gene expressing a labeled protein of interest linked between a virus promoter and IRES and the TIR1 family protein gene from rice linked downstream thereof was transferred (corresponding to B in FIG. 5). […] After extraction of a protein sample, the expressed GFP-aid-NLS marker protein was detected by Western blotting using the GFP antibody.

[1] = DNA construct A (rice TIR1 between virus promoter and IRES, chimeric gene downstream)
[2] = DNA construct B (chimeric gene between virus promoter and IRES, rice TIR1 downstream)

SMILES | depletion of expressed GFP-aid-NLS marker protein [1] | depletion of expressed GFP-aid-NLS marker protein [2]
O=C(O)Cc1c[nH]c2ccccc12 [IAA, indole-3-acetic acid] | efficiently depleted | no outstanding depletion
O=C(O)Cc1cccc2ccccc12 [NAA, 1-naphthaleneacetic acid] | efficiently depleted | no outstanding depletion

Reference: US20120115232A1, “METHOD FOR INDUCING DEGRADATION OF PROTEIN IN MAMMALIAN CELL” (OSAKA UNIVERSITY, priority 2009, published 2012)
